Assay [1] addresses T1, Serine/threonine-protein kinase Nek2 (Homo sapiens) (UniProt P51955).
T1 sequence (whole entry): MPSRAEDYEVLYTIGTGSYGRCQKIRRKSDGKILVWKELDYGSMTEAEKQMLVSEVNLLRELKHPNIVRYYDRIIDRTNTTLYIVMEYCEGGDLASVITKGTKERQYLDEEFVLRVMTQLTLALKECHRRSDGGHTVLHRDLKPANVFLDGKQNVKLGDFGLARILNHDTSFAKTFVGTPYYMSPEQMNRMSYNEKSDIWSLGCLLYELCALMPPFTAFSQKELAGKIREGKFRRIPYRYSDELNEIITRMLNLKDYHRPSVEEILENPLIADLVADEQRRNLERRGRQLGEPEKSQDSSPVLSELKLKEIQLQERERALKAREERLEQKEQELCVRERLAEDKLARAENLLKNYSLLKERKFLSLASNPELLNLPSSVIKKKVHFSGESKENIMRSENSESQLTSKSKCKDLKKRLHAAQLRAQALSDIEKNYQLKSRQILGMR
The experiment in a line: Selectivity interaction (KinomeScan (DiscoverX)) EUB0000695a NEK2. As to conditions: at 100 nM.

Assay [2] concerns the target Mitogen-activated protein kinase 7 (Homo sapiens) (UniProt Q13164). The experiment in a line: Selectivity interaction (KinomeScan (DiscoverX)) EUB0000666a MAPK7. The note with it: at 10 µM.
Assay [3] deals with Serine/threonine-protein kinase 25 (Homo sapiens) (UniProt O00506). The assay can be described thus: Selectivity interaction (ActivX KiNativ screen (kinase selectivity in THP-1 cell lysates)) EUB0000639a STK25. As to conditions: lysate. Format: subcellular.
Serine/threonine-protein kinase 25 (Homo sapiens), sequence (O00506 whole entry, looked up): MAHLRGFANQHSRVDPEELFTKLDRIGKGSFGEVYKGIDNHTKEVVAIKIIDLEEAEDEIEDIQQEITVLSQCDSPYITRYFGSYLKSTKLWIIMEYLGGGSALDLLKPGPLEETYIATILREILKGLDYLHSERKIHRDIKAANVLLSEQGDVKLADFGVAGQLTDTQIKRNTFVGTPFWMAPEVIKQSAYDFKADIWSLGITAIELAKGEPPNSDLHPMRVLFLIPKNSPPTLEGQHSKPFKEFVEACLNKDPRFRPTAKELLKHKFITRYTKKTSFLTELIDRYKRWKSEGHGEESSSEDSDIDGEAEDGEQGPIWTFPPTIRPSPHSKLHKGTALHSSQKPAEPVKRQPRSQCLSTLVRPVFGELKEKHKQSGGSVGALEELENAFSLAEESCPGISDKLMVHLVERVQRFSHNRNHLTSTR
For assay [4], the target named is Tyrosine-protein kinase JAK1 (Homo sapiens, UniProt P23458). The experiment in a line: Selectivity interaction (ActivX KiNativ screen (kinase selectivity in THP-1 cell lysates)) EUB0000639a JAK1. Type of assay: subcellular. The note with it: lysate, at 5 µM.
For assay [5], the target named is Receptor tyrosine-protein kinase erbB-4 (Homo sapiens, UniProt Q15303). The assay can be described thus: Selectivity interaction (KinomeScan (DiscoverX)) EUB0000045b ERBB4.
Receptor tyrosine-protein kinase erbB-4, sequence (Q15303 whole entry): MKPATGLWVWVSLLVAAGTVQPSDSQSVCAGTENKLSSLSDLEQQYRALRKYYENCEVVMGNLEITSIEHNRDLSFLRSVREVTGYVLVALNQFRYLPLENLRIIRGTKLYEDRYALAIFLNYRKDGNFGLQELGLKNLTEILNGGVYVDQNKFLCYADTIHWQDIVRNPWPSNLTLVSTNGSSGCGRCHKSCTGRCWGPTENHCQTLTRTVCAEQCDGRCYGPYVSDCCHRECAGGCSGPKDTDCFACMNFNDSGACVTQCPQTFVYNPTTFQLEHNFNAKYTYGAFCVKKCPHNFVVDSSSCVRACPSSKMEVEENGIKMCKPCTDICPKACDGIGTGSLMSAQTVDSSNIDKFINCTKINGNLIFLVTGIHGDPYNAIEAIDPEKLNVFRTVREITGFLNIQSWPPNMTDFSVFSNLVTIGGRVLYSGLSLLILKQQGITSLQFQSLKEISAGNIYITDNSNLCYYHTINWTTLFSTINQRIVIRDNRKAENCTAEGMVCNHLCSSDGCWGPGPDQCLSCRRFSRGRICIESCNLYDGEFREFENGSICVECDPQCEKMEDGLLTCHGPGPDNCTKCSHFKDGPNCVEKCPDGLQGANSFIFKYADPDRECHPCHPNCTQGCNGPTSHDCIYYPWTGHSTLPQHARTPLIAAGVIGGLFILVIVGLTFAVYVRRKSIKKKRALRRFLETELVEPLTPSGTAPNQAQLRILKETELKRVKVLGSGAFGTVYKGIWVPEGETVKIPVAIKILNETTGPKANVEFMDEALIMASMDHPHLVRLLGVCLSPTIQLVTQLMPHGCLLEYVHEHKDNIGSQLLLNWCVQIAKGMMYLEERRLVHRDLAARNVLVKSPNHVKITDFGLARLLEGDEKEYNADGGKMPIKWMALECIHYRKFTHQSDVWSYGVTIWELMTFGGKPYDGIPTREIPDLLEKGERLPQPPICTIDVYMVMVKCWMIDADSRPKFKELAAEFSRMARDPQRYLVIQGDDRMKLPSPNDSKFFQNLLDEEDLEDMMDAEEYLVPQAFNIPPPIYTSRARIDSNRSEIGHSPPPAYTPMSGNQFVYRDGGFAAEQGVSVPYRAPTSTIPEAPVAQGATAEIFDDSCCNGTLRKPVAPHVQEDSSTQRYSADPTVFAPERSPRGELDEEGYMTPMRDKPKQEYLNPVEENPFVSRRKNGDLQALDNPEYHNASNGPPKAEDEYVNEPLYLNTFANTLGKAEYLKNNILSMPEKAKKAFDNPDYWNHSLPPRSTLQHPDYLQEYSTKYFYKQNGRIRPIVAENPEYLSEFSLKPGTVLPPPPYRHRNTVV
For assay [6], the target named is Serine/threonine-protein kinase 35 (Homo sapiens) (UniProt Q8TDR2). The experiment in a line: Selectivity interaction (KinomeScan (DiscoverX)) EUB0000655a STK35. As to conditions: at 10 µM.
Serine/threonine-protein kinase 35 (Homo sapiens), sequence (Q8TDR2 whole entry): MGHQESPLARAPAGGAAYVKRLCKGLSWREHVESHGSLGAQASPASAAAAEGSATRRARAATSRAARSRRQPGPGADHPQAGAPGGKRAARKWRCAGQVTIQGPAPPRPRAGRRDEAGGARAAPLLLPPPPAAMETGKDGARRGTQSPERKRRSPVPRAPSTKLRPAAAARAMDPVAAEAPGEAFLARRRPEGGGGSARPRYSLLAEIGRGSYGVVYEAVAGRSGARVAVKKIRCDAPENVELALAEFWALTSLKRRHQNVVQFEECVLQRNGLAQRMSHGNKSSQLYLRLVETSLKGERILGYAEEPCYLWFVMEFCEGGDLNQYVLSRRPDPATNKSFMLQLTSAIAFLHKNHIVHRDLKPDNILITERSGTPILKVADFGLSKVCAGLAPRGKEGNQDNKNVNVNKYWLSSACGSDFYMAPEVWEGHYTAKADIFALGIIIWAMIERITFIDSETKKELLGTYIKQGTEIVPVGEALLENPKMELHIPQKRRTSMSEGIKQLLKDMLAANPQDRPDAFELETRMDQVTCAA
For assay [7], the system named is Epidermal growth factor receptor (Homo sapiens), P00533 [UNDEFINED MUTATION]. The experiment in a line: Selectivity interaction (KinomeScan (DiscoverX)) EUB0000092b EGFR. As to conditions: at 10 µM.
Epidermal growth factor receptor (Homo sapiens), P00533 [UNDEFINED MUTATION], sequence (P00533 whole entry, looked up, change not shown): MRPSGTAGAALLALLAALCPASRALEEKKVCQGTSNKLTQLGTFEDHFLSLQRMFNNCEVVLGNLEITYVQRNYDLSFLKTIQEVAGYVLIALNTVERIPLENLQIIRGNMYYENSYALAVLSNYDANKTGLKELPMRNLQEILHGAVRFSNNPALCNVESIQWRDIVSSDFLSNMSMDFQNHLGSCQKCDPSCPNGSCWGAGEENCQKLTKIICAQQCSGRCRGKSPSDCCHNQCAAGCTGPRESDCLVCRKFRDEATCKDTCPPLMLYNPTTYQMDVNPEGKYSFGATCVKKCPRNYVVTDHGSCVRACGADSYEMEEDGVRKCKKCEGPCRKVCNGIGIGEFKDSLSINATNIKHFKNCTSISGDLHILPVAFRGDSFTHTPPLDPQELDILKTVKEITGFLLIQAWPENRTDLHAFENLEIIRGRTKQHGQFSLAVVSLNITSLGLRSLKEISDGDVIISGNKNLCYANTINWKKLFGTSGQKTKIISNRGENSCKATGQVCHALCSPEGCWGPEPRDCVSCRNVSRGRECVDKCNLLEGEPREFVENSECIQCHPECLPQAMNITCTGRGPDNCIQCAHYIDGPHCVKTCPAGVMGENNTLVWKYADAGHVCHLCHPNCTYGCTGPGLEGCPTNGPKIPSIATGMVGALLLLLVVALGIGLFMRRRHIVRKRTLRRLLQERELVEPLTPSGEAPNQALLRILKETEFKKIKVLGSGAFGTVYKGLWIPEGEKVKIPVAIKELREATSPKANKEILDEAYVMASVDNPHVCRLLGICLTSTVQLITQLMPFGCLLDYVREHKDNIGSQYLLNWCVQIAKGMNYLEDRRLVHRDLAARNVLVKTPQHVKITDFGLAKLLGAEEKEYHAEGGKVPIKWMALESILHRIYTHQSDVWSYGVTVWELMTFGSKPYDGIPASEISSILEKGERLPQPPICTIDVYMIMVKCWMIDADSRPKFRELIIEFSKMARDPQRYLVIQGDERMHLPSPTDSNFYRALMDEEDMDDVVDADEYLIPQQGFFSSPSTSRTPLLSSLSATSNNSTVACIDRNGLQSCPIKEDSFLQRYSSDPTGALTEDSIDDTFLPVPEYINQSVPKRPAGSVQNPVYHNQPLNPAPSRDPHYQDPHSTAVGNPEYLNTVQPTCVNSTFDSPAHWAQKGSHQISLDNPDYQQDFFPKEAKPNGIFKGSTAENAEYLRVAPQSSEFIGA
Assay [8] has as its target T2, Histone-lysine N-methyltransferase NSD3 (Homo sapiens) (UniProt Q9BZ95).
T2 sequence (whole entry): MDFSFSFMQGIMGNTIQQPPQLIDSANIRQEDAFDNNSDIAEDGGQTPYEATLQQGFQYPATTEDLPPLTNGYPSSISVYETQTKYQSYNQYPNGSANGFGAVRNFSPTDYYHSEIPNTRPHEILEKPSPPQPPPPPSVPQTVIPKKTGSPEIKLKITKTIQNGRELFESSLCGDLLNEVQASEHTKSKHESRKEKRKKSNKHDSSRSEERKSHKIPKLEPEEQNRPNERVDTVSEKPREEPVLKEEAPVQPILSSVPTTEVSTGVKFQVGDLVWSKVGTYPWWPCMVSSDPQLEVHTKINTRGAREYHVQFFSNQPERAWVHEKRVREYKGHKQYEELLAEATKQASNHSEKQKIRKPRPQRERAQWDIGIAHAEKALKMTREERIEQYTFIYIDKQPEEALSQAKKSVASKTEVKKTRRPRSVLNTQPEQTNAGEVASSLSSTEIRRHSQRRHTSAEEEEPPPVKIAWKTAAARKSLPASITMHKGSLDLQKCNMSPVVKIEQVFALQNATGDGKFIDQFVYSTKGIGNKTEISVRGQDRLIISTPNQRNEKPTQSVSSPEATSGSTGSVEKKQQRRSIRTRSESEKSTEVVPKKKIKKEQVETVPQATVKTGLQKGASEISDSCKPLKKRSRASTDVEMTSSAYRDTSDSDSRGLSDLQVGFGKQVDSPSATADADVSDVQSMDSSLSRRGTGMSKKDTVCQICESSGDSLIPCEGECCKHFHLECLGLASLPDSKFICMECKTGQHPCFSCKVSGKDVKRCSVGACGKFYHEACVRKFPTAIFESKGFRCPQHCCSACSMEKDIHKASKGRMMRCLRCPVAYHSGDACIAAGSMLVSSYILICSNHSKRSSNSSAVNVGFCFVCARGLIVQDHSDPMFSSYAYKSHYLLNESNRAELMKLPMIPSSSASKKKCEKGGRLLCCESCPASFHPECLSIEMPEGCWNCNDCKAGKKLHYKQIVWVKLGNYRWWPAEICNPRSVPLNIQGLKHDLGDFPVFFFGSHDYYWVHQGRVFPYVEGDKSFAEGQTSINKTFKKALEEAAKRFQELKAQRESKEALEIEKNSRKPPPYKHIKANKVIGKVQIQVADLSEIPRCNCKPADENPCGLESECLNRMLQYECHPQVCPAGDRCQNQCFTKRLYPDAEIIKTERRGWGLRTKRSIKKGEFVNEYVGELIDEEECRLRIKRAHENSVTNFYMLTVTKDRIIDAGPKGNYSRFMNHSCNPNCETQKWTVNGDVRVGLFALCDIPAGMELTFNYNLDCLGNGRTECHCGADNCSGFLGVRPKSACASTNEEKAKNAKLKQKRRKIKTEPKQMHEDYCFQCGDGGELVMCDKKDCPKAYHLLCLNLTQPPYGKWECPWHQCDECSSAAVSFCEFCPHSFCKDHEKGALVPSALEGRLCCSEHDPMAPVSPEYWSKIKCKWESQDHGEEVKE
The assay can be described thus: Selectivity interaction (Methyltransferase screen (radiometric assays, panel of 8 PRMTs, 21 protein lysine methyltransferases, 3 DNA methyltransferases, and one RNA methyltransferase)) EUB0000271b NSD3.

In assay [9] the target is T3, Serine/threonine-protein kinase ULK3 (Homo sapiens) (UniProt Q6PHR2).
T3 sequence (whole entry): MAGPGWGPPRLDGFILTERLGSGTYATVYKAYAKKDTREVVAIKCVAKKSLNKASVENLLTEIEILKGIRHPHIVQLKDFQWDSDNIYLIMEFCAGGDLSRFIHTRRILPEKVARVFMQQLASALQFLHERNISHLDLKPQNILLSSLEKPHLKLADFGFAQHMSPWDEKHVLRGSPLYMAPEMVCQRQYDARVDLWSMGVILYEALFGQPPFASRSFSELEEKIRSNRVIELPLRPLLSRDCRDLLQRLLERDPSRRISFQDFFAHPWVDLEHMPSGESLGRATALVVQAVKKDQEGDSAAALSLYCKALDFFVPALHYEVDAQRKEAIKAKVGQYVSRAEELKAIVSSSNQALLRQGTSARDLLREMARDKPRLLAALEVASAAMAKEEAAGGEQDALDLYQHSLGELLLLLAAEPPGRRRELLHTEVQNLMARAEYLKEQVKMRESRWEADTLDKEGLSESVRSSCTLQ
The assay can be described thus: Selectivity interaction (Kinase panel (DSF assay)) EUB0001558a ULK3. (In general: Differential scanning fluorimetry follows unfolding on heating by fluorescence.)

Structures are written as SMILES.

Mitogen-activated protein kinase 7 (Homo sapiens), sequence (Q13164 2-816 limits assumed): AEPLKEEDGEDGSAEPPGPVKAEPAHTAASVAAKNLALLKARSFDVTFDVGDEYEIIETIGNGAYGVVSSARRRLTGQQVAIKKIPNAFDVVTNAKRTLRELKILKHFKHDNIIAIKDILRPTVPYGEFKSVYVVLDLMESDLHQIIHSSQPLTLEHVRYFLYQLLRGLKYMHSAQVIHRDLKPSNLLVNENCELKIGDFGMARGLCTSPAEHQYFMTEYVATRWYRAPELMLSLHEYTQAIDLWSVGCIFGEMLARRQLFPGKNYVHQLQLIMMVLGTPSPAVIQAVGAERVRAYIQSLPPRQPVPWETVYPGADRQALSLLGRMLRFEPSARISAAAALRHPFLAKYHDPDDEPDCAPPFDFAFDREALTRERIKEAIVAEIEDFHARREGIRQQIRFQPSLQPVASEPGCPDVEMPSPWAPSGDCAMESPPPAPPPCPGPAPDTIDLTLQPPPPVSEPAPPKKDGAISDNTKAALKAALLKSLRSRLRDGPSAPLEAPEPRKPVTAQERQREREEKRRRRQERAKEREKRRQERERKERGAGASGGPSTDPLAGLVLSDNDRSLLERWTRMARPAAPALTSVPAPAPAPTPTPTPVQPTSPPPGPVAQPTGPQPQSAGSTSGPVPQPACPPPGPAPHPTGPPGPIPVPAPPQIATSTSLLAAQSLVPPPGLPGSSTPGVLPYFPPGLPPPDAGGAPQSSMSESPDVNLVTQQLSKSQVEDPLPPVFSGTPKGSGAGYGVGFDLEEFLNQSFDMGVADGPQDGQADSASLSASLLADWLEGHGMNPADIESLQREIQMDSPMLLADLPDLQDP

Consider `Cc1cc(F)c(C(=O)Nc2cccc(-c3nncn3C(C)C)n2)cc1-n1cnc(C2CC2)c1`, for which the % of control in assay [1] was 100%.

In [2], `O=C(NOC[C@H](O)CO)c1ccc(F)c(F)c1Nc1ccc(I)cc1F` gave a % of control of 88%.

With `CC[C@@H]1[C@H](F)C(=O)N[C@@H]1COc1nccc2cc(C(N)=O)c(OC)cc12` [ZIMLOVISERTIB], the % of inhibition in [3] (at 0.01 µM) is 19.6%; in assay [3] (at 0.04 µM), -3.8%; in assay [3] (at 0.2 µM), -4.9%; in [3] (at 1 µM), -9.2%; in assay [3] (at 5 µM), 21.8%; in assay [4] it was -5.3%.

As for `C=CC(=O)Nc1cc(-n2c(=O)ccc3cnc4ccc(-c5ccc(NS(C)(=O)=O)cc5)cc4c32)ccc1C`, the % of control was determined as 78% in assay [5] (at 1 µM) and 18% in assay [5] (at 10 µM).

In turn, `CN(C)CCOc1ccc(-c2nc(-c3ccncc3)c(-c3ccc4c(c3)CC/C4=N\O)[nH]2)cc1` came in with a % of control in assay [6] of 100%.

`CCC(=O)N1CCN(c2ccc(-n3c(=O)ccc4cnc5ccc(-c6cnc7ccccc7c6)cc5c43)cc2C(F)(F)F)CC1` yielded a % of control in assay [7] of 80%.

On to `Cc1cc(C)cc([C@@H]2c3cc(C)ccc3NC(=O)CN2C(=O)c2ccc(Br)s2)c1`, for which the % of activity in [8] (at 1 µM) is 99.3%; in assay [8] (at 10 µM) it was 104%.

As for `CC(C)(O)[C@H](F)CN1Cc2cc(NC(=O)c3cnn4cccnc34)c(N3CCOCC3)cc2C1=O`, in assay [9], the dTM stood at 6.3 K.

These data come from ChEMBL document CHEMBL5465560, “Selectivity Literature for EUbOPEN Chemogenomic Library” (2024).
